The values below are quoted from earlier work in US20190359769A1, “PHARMACEUTICAL AGENT FOR IRON CHELATING” (Johannes Gutenberg-Universität Mainz, priority 2017, published 2019).

For data set [1] the following is noted: Fe^3+ complex.
For data set [2] the following is noted: in vivo.
For data set [3] the following is noted: studies on rats and humans.
The conditions of data set [4]: one study.

As for `CC(=O)N(O)CCCCCNC(=O)CCC(=O)N(O)CCCCCNC(=O)CCC(=O)N(O)CCCCCN` [DFO, Deferoxamine], the “logarithmic stability constant of iron complexes” value in data set [1] is 30. The plasma half-life entry in data set [2] is given as “about 5 minutes”.

`O=C(O)c1ccc(-n2nc(-c3ccccc3O)nc2-c2ccccc2O)cc1` [DFX, Deferasirox]: the physiological half-life in data set [3] is recorded as 8-16 h.

For the compound `Cc1c(O)c(=O)ccn1C` [DFP, Deferiprone], the “proportion of the DFP dose administered found in the urine in the form of inactive 3-O-glucoronide conjugates” value in data set [4] was 85%.
